Measurements as given in patent publication US9388419B2 (The Regents of the University of Colorado, a body corporate, priority 2009, dated 2016).
Read-outs that look alike come from different tables or passages of the source.

Experiments:
[1] = tested on: Yeast strains (S288C background); assay type: cell-based, Saccharomyces cerevisiae; details: aerobic; for % Increase Over Control: increase of 3-HP MIC over S288C in SD without supplement; for Average MIC Assay Result (g/L 3-HP): MIC of 3-HP for yeast S288C in SD media with the named supplement(s)
Method: The minimum inhibitory concentration (MIC) was determined aerobically in a 96 well-plate format. […] Media supplements were added according to levels reported in the Supplements Table, where specified. Overnight cultures of strains were grown in triplicate in 5 mL SD media with vitamins (Methods in Enzymology vol. 350, page 17 (2002)). A 1% (v/v) inoculum was introduced into a 5 ml culture of SD minimal media without vitamins. After the cells reached mid-exponential phase, the culture was diluted to an OD600 of 0.200. The cells were further diluted 1:5 and a 10 μL aliquot was used to inoculate each well of a 96 well plate (˜10^4 cells per well) to total volume of 100 uL. […] Plates were incubated for 72 hours at 30 C.

[2] = tested on: Yeast strains (S288C background); assay type: cell-based, Saccharomyces cerevisiae; details: anaerobic; for % Increase Over Control: increase of 3-HP MIC over S288C in SD without supplement; for Average MIC Assay Result (g/L 3-HP): MIC of 3-HP for yeast S288C in SD media with the named supplement(s)
Method: The minimum inhibitory concentration (MIC) was determined anaerobically in a 96 well-plate format. […] A 1% (v/v) inoculum was introduced into a 5 ml culture of SD minimal media without vitamins. After the cells reached mid-exponential phase, the culture was diluted to an OD600 of 0.200. The cells were further diluted 1:5 and a 10 μL aliquot was used to inoculate each well of a 96 well plate (˜10^4 cells per well) to total volume of 100 uL. […] Plates were incubated for 72 hours at 30 C. […] Plates were sealed in biobag anaerobic chambers that contained gas generators for anaerobic conditions and incubated for 72 hours at 30 C.

E. coli Mach1-T1 = experiment: Minimum inhibitory concentration (MIC) of 3-HP, microaerobic, 96 well-plate, MOPS minimal media; assay type: cell-based, Escherichia coli; details: E. coli Mach1-T1, MOPS minimal media with the supplement at its optimal concentration vs unsupplemented, microaerobic, 24 hours
Method: Overnight cultures of strains were grown in 5 ml LB (with antibiotic where appropriate). A 1 v/v % was used to inoculate a 15 ml conical tube filled to the top with MOPS minimal media and capped. After the cells reached mid exponential phase, the culture was diluted to an OD600 of 0.200. The cells were further diluted 1:20 and a 10 ul aliquot was used to inoculate each well (˜10^4 cells per well).
The minimum inhibitory concentration (MIC) was determined microaerobically in a 96 well-plate format. Overnight cultures of strains were grown in 5 mL LB (with antibiotic where appropriate). A 1% (v/v) inoculum was introduced into a 15 ml culture of MOPS minimal media. After the cells reached mid-exponential phase, the culture was diluted to an OD600 of 0.200. The cells were further diluted 1:20 and a 10 μL aliquot was used to inoculate each well of a 96 well plate (˜10^4 cells per well).

E. coli [3] = assay type: cell-based, Escherichia coli; details: strain BW25113, M9 media with the named supplement(s), aerobic; MIC of 3-HP versus M9 control without supplement
Method: (§1) For MIC evaluations, the final results are expressed in chemical agent concentrations determined by analysis of the stock solution by HPLC (i.e., see Subsection Mb).
The minimum inhibitory concentration (MIC) was determined aerobically in a 96 well-plate format. […] Media supplements were added according to levels reported in the Supplements Table, where specified. Overnight cultures of strains were grown in triplicate in 5 mL LB (with antibiotic where appropriate). A 1% (v/v) inoculum was introduced into a 5 ml culture of M9 minimal media.

E. coli [4] = assay type: cell-based, Escherichia coli; details: anaerobic; for % Increase Over Control: increase of 3-HP MIC over BW25113 in M9 without supplement; for MIC Assay Result (g/L 3-HP): MIC of 3-HP for E. coli BW25113 in M9 media with the named supplement(s), 24-hour
Method: as §1
The minimum inhibitory concentration (MIC) was determined anaerobically in a 96 well-plate format. […] Media supplements were added according to levels reported in the Supplements Table, where specified. Overnight cultures of strains were grown in triplicate in 5 mL LB (with antibiotic where appropriate). A 1% (v/v) inoculum was introduced into a 5 ml culture of M9 minimal media.

B. subtilis = experiment: MIC protocol B. subtilis aerobic (Common Methods, M9 media + glutamate, 24 hours); assay type: cell-based, Bacillus subtilis; details: for Avg 24 hr ΔOD600: B. subtilis 168 in M9 + glu + trp with the named supplement(s), 3HP tolerance; for % Increase Over Control: increase of 24 hr ΔOD600 over B. subtilis 168 without supplement
Method: as §1
The minimum inhibitory concentration (MIC) was determined aerobically in a 96 well-plate format. […] Media supplements were added according to levels reported in the Supplements Table where specified. Overnight cultures of strains were grown in triplicate in 5 mL LB (with antibiotic where appropriate). A 1% (v/v) inoculum was introduced into a 5 ml culture of M9 minimal media+glutamate.

strain BX3_0194 = experiment: 3-HP production by BX3_0194 at 100-mL scale in SM3 medium, without or with 10 μg/ml cerulenin; assay type: cell-based, E. coli
Method: Cultures were started from freezer stocks by standard practice (Sambrook and Russell, 2001) into 50 mL of LB media plus 100 μg/mL ampicillin and grown to stationary phase overnight at 37° C. with rotation at 225 rpm. Five ml of this culture were transferred to 100 ml of SM3 media plus 40 g/L glucose, 100 μg/ml ampicillin, and 1 mM IPTG in triplicate 250-ml baffled flasks and incubated at 37° C., 225 rpm. […] Dry cell weight (DCW) is calculated as 0.33 times the measured OD600 value, based on baseline DCW to OD600 determinations. All data are the average of triplicate cultures.

E. coli K12 = assay type: cell-based, Escherichia coli; details: E. coli K12, M9 minimal media supplemented with the substance (polyamines 0.1 g/L, sodium bicarbonate 20 mM), aerobic, 24 hours
Method: Overnight cultures of strains were grown in 5 ml LB (with antibiotic where appropriate) at 37° C. in a shaking incubator. A 1 v/v % was used to inoculate 10 mL of M9 minimal media. After the cells reached mid-exponential phase, the culture was diluted to an OD600 of 0.200. The cells were further diluted 1:20 and a 10 ul aliquot was used to inoculate each well (˜10^4 cells per well). […] The MIC endpoint is the lowest concentration of compound at which there was no visible growth.

| Structure (SMILES) | % Increase Over Control [2] [%] | MIC increase (3-HP) resulting from supplementation (E. coli Mach1-T1) [%] | % Increase Over Control (E. coli [3]) [%] | other results |
| --- | --- | --- | --- | --- |
| N[C@@H](Cc1c[nH]c2ccccc12)C(=O)O [Tryptophan (A)] | 47 | – | – | % Increase Over Control [1]: 20% |
| NNC(=O)c1ccc(O)cc1 [p-hydroxybenzoic acid hydrazide] | – | 33 | – | – |
| N[C@@H](CO)C(=O)O [Serine (B)] | 20 | – | 17 | % Increase Over Control (E. coli [4]): 7%; Average MIC Assay Result (g/L 3-HP) [2]: 45 g/L |
| CCC(=O)C(=O)O [oxobutanoate] | – | 7 | – | – |
| N[C@@H](Cc1ccccc1)C(=O)O [phenylalanine] | – | 33 | – | – |
| NC(=O)CC[C@H](N)C(=O)O [Glutamine(C)] | – | – | 9 | – |
| Nc1nc(=O)c2c([nH]1)NC[C@@H](CNc1ccc(C(=O)N[C@@H](CCC(=O)O)C(=O)O)cc1)N2 [Tetrahydrofolate (A)] | – | – | 9 | MIC Assay Result (g/L 3-HP) (E. coli [4]): 40.0 g/L; % Increase Over Control (E. coli [4]): 33% |
| N[C@@H](CCO)C(=O)O [homoserine] | – | 33 | – | – |
| N[C@@H](CC(=O)O)C(=O)O [Aspartate] | – | – | – | % Increase Over Control [1]: 26% |
| O=C(O)C1=C[C@@H](O)[C@@H](O)[C@H](O)C1 [Shikimate (A)] | 60 | – | 3 | Average MIC Assay Result (g/L 3-HP) [1]: 80 g/L; % Increase Over Control [1]: 78%; Average MIC Assay Result (g/L 3-HP) [2]: 60 g/L |
| NCCCC[C@H](N)C(=O)O [Lysine (D)] | 20 | – | 33 | % Increase Over Control (E. coli [4]): 39%; Average MIC Assay Result (g/L 3-HP) [2]: 45 g/L |
| O=C(O)CC(O)(CC(=O)O)C(=O)O [Citrate] | – | – | – | Avg 24 hr ΔOD600 (B. subtilis): 0.30 |
| Cl.NC1CCSC1=O (stereo not drawn) [homocysteine thiolactone hydrochloride] | – | 60 | – | – |
| CCC(=O)C(=O)O [2-oxobutyrate (B)] | 2 | – | – | Average MIC Assay Result (g/L 3-HP) [1]: 50 g/L; % Increase Over Control [1]: 11%; Average MIC Assay Result (g/L 3-HP) [2]: 38 g/L |
| N[C@@H](Cc1c[nH]c2ccccc12)C(=O)O [tryptophan] | – | 33 | – | – |
| C[C@@H](O)[C@H](N)C(=O)O [Threonine (B)] | 2 | – | – | – |
| NCC(=O)O [Glycine (B)] | 60 | – | – | Average MIC Assay Result (g/L 3-HP) [1]: 50 g/L; % Increase Over Control [1]: 11%; Average MIC Assay Result (g/L 3-HP) [2]: 60 g/L |

| Structure (SMILES) | % Increase Over Control [2] [%] | MIC increase (3-HP) resulting from supplementation (E. coli Mach1-T1) [%] | % Increase Over Control (E. coli [3]) [%] | other results |
| --- | --- | --- | --- | --- |
| NC(CCS)C(=O)O (stereo not drawn) [Homocysteine (B)] | 7 | – | 9 | Average MIC Assay Result (g/L 3-HP) [2]: 40 g/L |
| O=C(O)O [Bicarbonate (C)] | 140 | – | 59 | Average MIC Assay Result (g/L 3-HP) [2]: 90 g/L |
| CC[C@H](C)[C@H](N)C(=O)O [Isoleucine (B)] | 2 | – | 17 | Average MIC Assay Result (g/L 3-HP) [2]: 38 g/L |
| NCCC[C@H](N)C(=O)O [Ornithine(C)] | – | – | 9 | – |
| N[C@@H](Cc1ccc(O)cc1)C(=O)O [tyrosine] | – | 40 | – | – |
| C/C=C/C/C=C/CCC(=O)[C@H]1O[C@H]1C(N)=O [cerulenin] | – | – | – | 3HP (strain BX3_0194; 4 hr): 0.003 g/L; 3HP (strain BX3_0194; 6 hr): 0.14 g/L; 3HP (strain BX3_0194; 8 hr): 0.43 g/L; 3HP (strain BX3_0194; 24 hr): 1.43 g/L |
| O=C([O-])O.[Na+] [sodium bicarbonate] | – | – | – | Minimum inhibitory concentration (MIC) of 3-HP in supplemented media (E. coli K12): 30 mg/mL; Avg 24 hr ΔOD600 (B. subtilis): 0.06; % Increase Over Control (B. subtilis): 56% |
| NCCCCCN [Cadaverine (C)] | 60 | – | – | – |
| NC(=O)NCCC[C@H](N)C(=O)O [Citrulline (C)] | – | – | 9 | Average MIC Assay Result (g/L 3-HP) [1]: 58 g/L; % Increase Over Control [1]: 28%; Average MIC Assay Result (g/L 3-HP) [2]: 97 g/L |
| O=C(O)c1cccc(O)c1O [2,3-didyroxybenzoic acid, 2,3-dihydroxybenzoic acid] | – | 33 | – | – |
| C[C@@H](O)[C@H](N)C(=O)O [threonine] | – | 3 | – | – |
| Nc1ccc(C(=O)O)cc1 [p-aminobenzoate (A)] | – | – | 27 | MIC Assay Result (g/L 3-HP) (E. coli [4]): 40.0 g/L; % Increase Over Control (E. coli [4]): 33% |
| Cc1ncc(CO)c(CO)c1O.Cl [pyridoxine hydrochloride] | – | 0 | – | – |
| Nc1ccc(C(=O)O)cc1 [p-aminobenzoic acid] | – | 7 | – | Avg 24 hr ΔOD600 (B. subtilis): 0.07; % Increase Over Control (B. subtilis): 89% |
| CSCC[C@H](N)C(=O)O [Methionine] | – | – | – | Avg 24 hr ΔOD600 (B. subtilis): 0.15 |
| N[C@@H](Cc1ccccc1)C(=O)O [Phenylalanine (A)] | 2 | – | 17 | – |
| NCCCCNCCCN [Spermidine (C)] | 60 | – | – | – |
